According to US20200345761A1, “PREVENTIVE AND/OR THERAPEUTIC AGENT FOR DEMENTIA” (MITOS CO., LTD., priority 2017, published 2020):

Legend:
[1] = test system: Alzheimer-type dementia patients
From the text: Patients were selected on the basis of the following three criteria.
(1) Deterioration in the score occurs such that the ADAS-cog score based on formula [70−(MMSE×2.33)] (J. Caro et al., BMC Neurol 2002; 2:6.) or the ADAS-cog score calculated in terms of MMSE (Mini-Mental State Examination) exceeds 10.
Finally, 11 patients were selected, and treated with H2 gas.
Since the probability of suffering complications increases as the concentration of lithium in blood increases, the dosage of lithium carbonate was reduced (W. S. Waring, Toxicol Rev 2006; 25:221-230.). The patients of the treatment group were given oral administration of a 200 mg tablet of lithium carbonate (Li2CO3) (Mitsubishi Tanabe Pharma Corporation) twice a day and inhalation of 3% H2 twice a day. The test period was 6 months. As the gas containing H2, H2 gas (3%) containing 21% oxygen was generated using a portable H2 generator (Nishijima/Ecore Gas Hydrogen Generator) (H. Ono et al., J Stroke Cerebrovasc Dis 2017; 26:2587-2594.). […] Since lithium carbonate is used as a therapeutic agent for depression and mania (bipolar disorder), and it was reported that patients who ingested lithium carbonate less likely developed dementia, lithium carbonate was used in this Example.
The patients were evaluated by a blind method using the ADAS-cog score.
The ADAS-cog test was conducted every 1 to 2 months. The efficacy of treatment with respect to the ADAS-cog score was determined by comparing the ADAS-cog score at the start of the test with two or three tests during treatment.

dementia patients = details: hydrogen gas about 3 to 4% inhaled 1 hour twice a day, 6-month treatment period, six patients
From the text: Patients (outpatients in Iryohojin Shadanshinwakai Nishijima Byoin (Numazu-shi, Shizuoka)) in whom rapid deterioration (deterioration by 3 or more points over 1 year) in a cognitive function test such as MMSE or ADAS-cog occured although existing four agents for dementia were used over a long period of time, and improvement is not attained by other ordinary treatment methods.
Patients for whom it is considered difficult to repeatedly inhale hydrogen gas over a long period of time because of severe medical disease, chronic chest disease (chronic obstructive pulmonary disease (COPD), asthma or the like), mouth inflammation or the like.
Patients for whom it is determined from a score in the ADAS-cog cognitive function test that a therapeutic effect is achieved.

[2] = inhalation of H2 gas (3%) containing 21% oxygen; cited from earlier work
Alzheimer-type dementia = details: cited from earlier work
[3] = 11 patients including the unresponsive patient, at completion of H2 treatment

In the case of `O=C([O-])[O-].[Li+].[Li+]` [lithium, lithium carbonate, reference compound], the “Cognitive function (ADAS-cog) with lithium used alone” value ([1]; after H2 treatment was stopped, lithium alone) is reported as “the cognitive function was not improved”.
With `[HH]` [H2, hydrogen gas] the “Average change of ADAS-cog score with respect to the initial score” value [1, 3] was −3.4, the “Average change of ADAS-cog score with respect to the worst score” value [1, 3] was −8.5 and the “Patients whose ADAS-cog score was improved (decreased) from that at the start time” value ([1]; at the end of the H2 treatment period, 11 patients) was “seven”. The “Worst score: B (ADAS-cog), average” value ([1]; average of 11 patients) was 39.2, the “Final score: C (ADAS-cog), average” value ([1]; average of 11 patients at completion of H2 treatment) was 30.7 and the “Patients with improvement in the ADAS-cog score” value ([1]; combination therapy with H2 and lithium, Alzheimer-type dementia patients) was 10 out of 11. For the same molecule, the “Therapeutic effect judged from ADAS-cog score (effective cases)” value (dementia patients) was “effective in all of the six patients” and the Blood concentration [2] was “confirmed to increase”.
For `COc1cc2c(cc1OC)C(=O)C(CC1CCN(Cc3ccccc3)CC1)C2` (centres unmarked) [Donepezil], the “ADAS-cog score of the administration group” value (Alzheimer-type dementia; after 6 months) is given as “turned back to the initial value” and the “Change of ADAS-cog score” value (Alzheimer-type dementia; after 6 weeks) is given as −3 points.
